{"source": "patent US8425908B2", "about": "“Treatment with anti-ErbB2 antibodies” (Genentech, Inc., priority 1997, dated 2013)", "test_system": "ErbB2-overexpressing metastatic breast cancer", "test": "Randomized clinical study of chemotherapy with or without HERCEPTIN in patients with metastatic breast cancer", "type": "in vivo, human", "source_text": "Eligibility Criteria Patients had to fulfill all of the following criteria to be eligible for study admission: • Metastatic breast cancer • Overexpression of the ErbB2 (HER2) oncogene (2+ to 3+ as determined by immunohistochemistry or fluorescence in situ hybridization (FISH). [Tumor expression of ErbB2 can be determined by immunohistochemical analysis, as previously described (Slamon et al., [1987] and [1989], supra), of a set of thin sections prepared from the patient's paraffin-archived tumor blocks. The primary detecting antibody used is murine 4D5 MAb, which has the same CDRs as the humanized antibody used for the treatment.\nMeasurable disease was defined as any mass reproducibly measurable in two perpendicular diameters by physical examination, X-ray (plain films), computerized tomography (CT), magnetic resonance imaging (MRI), ultrasound, or photographs.\nOsteoblastic metastases, pleural effusions, or ascites were not considered to be measurable. Measurable lesions must be at least 1 cm in greatest dimension. Enumeration of evaluable sites of metastatic disease and number of lesions in an evaluable site (e.g. lung) had to be recorded on the appropriate Case Report Form (CRF). If a large number of pulmonary or hepatic lesions were present, the six largest lesions per site were followed. • The ability to understand and willingness to sign a written informed consent form • Women≧18 years • Suitable candidates for receiving concomitant cytotoxic chemotherapy as evidenced by screening laboratory assessments of hematologic, renal, hepatic, and metabolic functions.\nExclusion Criteria Patients with any of the following were excluded from study entry: • Prior cytotoxic chemotherapy for metastatic breast cancer Patients may have received prior hormonal therapy (e.g. tamoxifen) for metastatic disease or cytotoxic therapy in the adjuvant setting. • Concomitant malignancy that has not been curatively treated • A performance status of <60% on the Karnofsky scale • Pregnant or nursing women; women of childbearing potential, unless using effective contraception as determined by the investigator • Bilateral breast cancer (either both primary tumors must have 2+ to 3+ HER2 overexpression, or the metastatic site must have 2+ to 3+ HER2 overexpression) • Use of investigational or unlicensed agents within 30 days prior to study entry • Clinically unstable or untreated metastases to the brain (e.g. requiring radiation therapy)\nHalf the patients (stratified by chemotherapy) were randomized to additionally receive the HERCEPTIN® antibody (see below).\nBeginning on day 7, patients received weekly administration of 2 mg/kg antibody (i.v.) over a 90-minute period. […]", "key": {"[1]": {"conditions": "median follow-up of 10.5 months"}}}
{"molecule": "CC(=O)O[C@H]1C(=O)[C@@]2(C)[C@H]([C@H](OC(=O)c3ccccc3)[C@]3(O)C[C@H](OC(=O)[C@H](O)[C@@H](NC(=O)c4ccccc4)c4ccccc4)C(C)=C1C3(C)C)[C@]1(OC(C)=O)CO[C@@H]1C[C@@H]2O", "note": "[T, paclitaxel]", "values": [{"measurement": "syndrome of myocardial dysfunction, Grade 3/4", "result": 0, "unit": "%"}, {"measurement": "AE (%), overall severe adverse events", "setting": "[1]", "result": 59, "unit": "%"}, {"measurement": "RR (%), response rates", "setting": "[1]", "result": 25.0, "unit": "%"}, {"measurement": "TTP (months), time to disease progression", "setting": "[1]", "result": 4.2, "unit": "months"}]}
